Reference: ChEMBL document CHEMBL1132747, “Development of plasmin and plasma kallikrein selective inhibitors and their effect on M1 (melanoma) and HT29 cell lines” (Bioorg Med Chem Lett, 2000)

Legend:
Plasminogen [1] = biological target: T1, Plasminogen (Homo sapiens, UniProt P00747); assay: Inhibitory activity of compound was evaluated against plasmin
[2] = Inhibitory activity of compound was evaluated against thrombin-S-2238
[3] = Inhibitory activity of compound was evaluated against plasmin-fibrin (Fn)
[4] = Inhibitory activity of compound was evaluated against thrombin-fibrinogen (Fg)
[5] = Inhibitory activity of compound was evaluated against urokinase-S-2444
[6] = Inhibitory activity of compound was evaluated against plasma kallikrein-S-2302; format: cell-free
[7] = Inhibitory activity of compound was evaluated against thrombin-S-2238; not detectable
[8] = Inhibitory activity of compound was evaluated against plasma kallikrein-S-2302; not detectable; format: cell-free
Plasminogen [9] = biological target: T1, Plasminogen; assay: Inhibitory activity of compound was evaluated against plasmin; not detectable
[10] = Inhibitory activity of compound was evaluated against thrombin-fibrinogen (Fg); not detectable
[11] = Inhibitory activity of compound was evaluated against urokinase-S-2444; not detectable
[12] = Inhibitory activity of compound was evaluated against plasmin-fibrin (Fn); not detectable

T1 sequence (P00747 97-580 limits assumed): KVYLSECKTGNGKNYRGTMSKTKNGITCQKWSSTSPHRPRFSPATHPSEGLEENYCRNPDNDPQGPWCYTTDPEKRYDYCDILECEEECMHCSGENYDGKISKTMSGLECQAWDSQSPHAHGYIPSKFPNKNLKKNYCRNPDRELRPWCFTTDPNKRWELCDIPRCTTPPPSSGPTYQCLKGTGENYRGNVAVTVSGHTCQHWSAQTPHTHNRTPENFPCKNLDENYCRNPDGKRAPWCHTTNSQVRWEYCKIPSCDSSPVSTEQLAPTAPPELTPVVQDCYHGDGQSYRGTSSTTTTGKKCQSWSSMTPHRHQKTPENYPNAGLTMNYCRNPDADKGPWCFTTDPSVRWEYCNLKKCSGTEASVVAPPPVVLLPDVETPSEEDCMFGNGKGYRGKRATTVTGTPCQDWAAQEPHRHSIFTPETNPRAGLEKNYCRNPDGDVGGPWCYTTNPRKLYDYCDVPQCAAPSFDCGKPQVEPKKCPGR
T1 sequence (P00747 581-810 limits assumed): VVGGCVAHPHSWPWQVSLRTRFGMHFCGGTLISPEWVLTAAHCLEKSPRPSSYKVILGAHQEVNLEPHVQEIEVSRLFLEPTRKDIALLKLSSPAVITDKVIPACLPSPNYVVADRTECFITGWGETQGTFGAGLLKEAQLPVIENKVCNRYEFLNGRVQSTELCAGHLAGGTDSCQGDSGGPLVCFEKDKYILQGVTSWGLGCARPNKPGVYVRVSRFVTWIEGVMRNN

| IC50 (Plasminogen [1]) [µM] | IC50 [2] [µM] | IC50 [3] [µM] | IC50 [4] [µM] | IC50 ([5]; read-out: IC50) [µM] | IC50 [6] [µM] | SMILES | other results |
| --- | --- | --- | --- | --- | --- | --- | --- |
| 2.5 | > 50 | 0.56 | > 10 | > 50 | 45 | CCCCCCCCOC(=O)[C@H]1CC[C@H](CNC(=O)C(Cc2ccc(OC(=O)OCc3ccccc3Br)cc2)NC(=O)[C@H]2CC[C@H](CN)CC2)CC1 (some centres not stated) | – |
| 0.23 | – | – | – | – | 0.37 | CC(=O)c1ccc(NC(=O)C(Cc2ccc(OC(=O)OCc3ccccc3Br)cc2)NC(=O)[C@H]2CC[C@H](CN)CC2)cc1 (some centres not stated) | – |
| – | – | 0.39 | – | 54 | – | Cc1nc(C)c(CCCNC(=O)C(Cc2ccc(OC(=O)OCc3ccccc3Br)cc2)NC(=O)[C@H]2CC[C@H](CN)CC2)nc1O (some centres not stated) | IC50 ([7]; read-out: IC50): 490 µM; IC50 ([8]; read-out: IC50): 36 µM; IC50 (Plasminogen [9]; read-out: IC50): 0.74 µM; IC50 ([10]; read-out: IC50): > 250 µM |
| 0.8 | > 50 | 0.23 | > 25 | > 50 | 16 | CCCCCCCCNC(=O)C(Cc1ccc(OC(=O)OCc2ccccc2Br)cc1)NC(=O)[C@H]1CC[C@H](CN)CC1 (some centres not stated) | – |
| 0.46 | 70 | 0.056 | > 100 | 260 | 2.1 | CC(C)CCNC(=O)C(Cc1ccc(OC(=O)OCc2ccccc2Br)cc1)NC(=O)[C@H]1CC[C@H](CN)CC1 (some centres not stated) | – |
| 620 | > 1000 | 350 | > 1000 | 350 | 1.3 | NC[C@H]1CC[C@H](C(=O)NC(Cc2ccccc2)C(=O)Nc2ccc(CC(=O)O)cc2)CC1 (some centres not stated) | – |

Further lines, the compound ahead of its results:

| SMILES | IC50 (Plasminogen [1]) [µM] | IC50 [2] [µM] | IC50 [3] [µM] | IC50 [4] [µM] | IC50 ([5]; read-out: IC50) [µM] | IC50 [6] [µM] | other results |
| --- | --- | --- | --- | --- | --- | --- | --- |
| CCCCCCCCNC(=O)C(Cc1ccc(OCc2ccncc2)cc1)NC(=O)[C@H]1CC[C@H](CN)CC1 (some centres not stated) | 0.53 | > 400 | 0.36 | > 100 | 5.3 | 30 | – |
| NC[C@H]1CC[C@H](C(=O)NC(Cc2ccc(Oc3ncccn3)cc2)C(=O)Nc2cccc(C(=O)O)c2)CC1 (some centres not stated) | 32 | > 1000 | 29 | > 1000 | 650 | 0.71 | – |
| Cc1nc(Cc2ccccc2)c(O)nc1Cc1ccccc1 | – | – | – | – | – | – | IC50 [11]: Not detectable; IC50 [7]: Not detectable; IC50 [8]: Not detectable; IC50 (Plasminogen [9]): Not detectable; IC50 [10]: Not detectable; IC50 [12]: Not detectable |
| Cc1nc(Cc2ccccc2)c(O)nc1CCCCNC(=O)c1cccs1 | – | – | – | – | – | – | IC50 [11]: Not detectable; IC50 [7]: Not detectable; IC50 [8]: Not detectable; IC50 (Plasminogen [9]): Not detectable; IC50 [10]: Not detectable; IC50 [12]: Not detectable |
| Cc1nc(CCC(=O)OCc2ccccc2)c(O)nc1CCCCNC(=O)OCc1ccccc1 | – | – | – | – | – | – | IC50 [7]: Not detectable; IC50 [8]: Not detectable; IC50 (Plasminogen [9]): Not detectable; IC50 [5]: Not detectable; IC50 [10]: Not detectable; IC50 [12]: Not detectable |
